Several values for one entry are separate records, joined by “and”; a condition that tells them apart may be missing. Identical values can stand only once. Entries after “also recorded” stand apart in the source; their conditions may differ. Like-named read-outs stand apart in the source and are kept apart here.
Key:
COX2 = biological target: T1, COX2 (Homo sapiens, UniProt P35354); test: Cyclooxygenase (COX2) inhibitory assay, ovine/human COX inhibitor assay kit; assay type: biochemical
T1 construct: purchased
T1 sequence (P35354 18-604): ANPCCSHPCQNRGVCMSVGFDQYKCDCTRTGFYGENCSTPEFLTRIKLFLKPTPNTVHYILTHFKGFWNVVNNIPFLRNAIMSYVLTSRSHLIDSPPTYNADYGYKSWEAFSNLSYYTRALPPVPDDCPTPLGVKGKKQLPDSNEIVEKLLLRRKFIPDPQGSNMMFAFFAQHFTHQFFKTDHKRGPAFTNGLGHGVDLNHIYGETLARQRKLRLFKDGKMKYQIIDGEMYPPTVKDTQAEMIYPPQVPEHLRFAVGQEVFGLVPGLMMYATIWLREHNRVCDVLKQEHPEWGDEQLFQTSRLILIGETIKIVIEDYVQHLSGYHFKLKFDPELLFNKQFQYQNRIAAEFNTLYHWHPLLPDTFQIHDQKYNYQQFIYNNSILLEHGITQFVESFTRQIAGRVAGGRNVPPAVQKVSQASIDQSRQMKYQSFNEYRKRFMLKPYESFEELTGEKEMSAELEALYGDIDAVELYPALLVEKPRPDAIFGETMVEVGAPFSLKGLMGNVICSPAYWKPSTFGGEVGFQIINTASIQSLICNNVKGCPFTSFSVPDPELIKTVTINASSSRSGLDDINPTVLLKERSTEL
Experimental: (§1) After that, 10 µL of arachidonic acid (100 µM), after 2 min of 1 M HCl of 50 µL and Ellman’s reagent, was added. The absorbance at 410 nm was measured spectrophotometrically against the blank. The selectivity index was calculated as follows:SI = IC50 COX1/IC50 COX2

[1] = tested on: carrageenan-induced paw edema; test: Rat paw edema test induced by carrageenan; assay type: in vivo, Wistar rats; details: carrageenan 1% w/v, 2 h and 4 h, S-naproxen 15 mg/kg p.o., 4-allyl guaiacol 15.46 mg/kg, n = 6
Experimental: In vivo studies were performed as per the guidelines issued by the WHO, Geneva. The protocol was approved by the IAEC for animal handling. The Wistar rats (male; 225–250 g) and ICR mice (20–25 g) were procured from the Animal House facility of Panjab University Chandigarh. The anti-inflammatory activity of MAS-1696 was determined by injecting carrageenan in rat paws as published by us previously. The different groups of rats with six animals in each group were administered the drug. The fresh solution of carrageenan (Type IV, 0.1 mL, 1%) was used to induce acute edema by injecting it under the plantar aspect of the left hind paw. One […] (0.9%) of saline was administered to the right paw (control group). A plethysmometer was used to measure the change in the paw volume between two and four hours after the carrageenan challenge.

human recombinant 5-LOX = biological target: T2, human recombinant 5-LOX (Homo sapiens, UniProt P09917); test: 5-Lipoxygenase inhibitory assay (5-LOX assay kit); assay type: biochemical
T2 construct: purchased
T2 sequence (P09917 1-674): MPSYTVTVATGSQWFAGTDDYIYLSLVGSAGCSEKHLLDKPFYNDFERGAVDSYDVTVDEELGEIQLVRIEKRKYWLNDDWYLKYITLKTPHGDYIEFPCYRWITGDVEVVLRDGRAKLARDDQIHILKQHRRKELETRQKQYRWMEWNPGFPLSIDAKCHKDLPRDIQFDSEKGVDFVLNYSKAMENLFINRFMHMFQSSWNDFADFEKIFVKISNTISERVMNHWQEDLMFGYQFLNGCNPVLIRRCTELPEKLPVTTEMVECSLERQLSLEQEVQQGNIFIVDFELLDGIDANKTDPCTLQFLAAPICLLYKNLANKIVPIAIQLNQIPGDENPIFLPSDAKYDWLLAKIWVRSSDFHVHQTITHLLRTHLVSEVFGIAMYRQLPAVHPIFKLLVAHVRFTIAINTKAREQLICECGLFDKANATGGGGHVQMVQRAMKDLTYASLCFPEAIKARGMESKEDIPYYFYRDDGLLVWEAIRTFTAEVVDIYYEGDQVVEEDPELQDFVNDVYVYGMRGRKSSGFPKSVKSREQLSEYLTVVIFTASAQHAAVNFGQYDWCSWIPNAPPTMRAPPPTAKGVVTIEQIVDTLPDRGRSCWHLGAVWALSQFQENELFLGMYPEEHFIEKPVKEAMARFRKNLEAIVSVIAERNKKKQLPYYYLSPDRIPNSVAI
Experimental: The MAS 1696 was tested against human recombinant 5-LOX using a 5-LOX assay kit. Briefly, 5-LOX solution (90 µL) was added with various MAS-1696 concentrations. The arachidonic acid (10 µL) was further added and the absorbance was measured at 490 nm against the blank.

stomach (gastric ulcers) = test: Determination of ulcer index (gastric damage); assay type: in vivo, rats; details: S-naproxen 120 mg/kg p.o., equimolar doses of MAS-1696 or physical mixture; 4 h after treatment; n = 6
Experimental: The fasting rats were separated into four groups (n = 6). […] After 4 h of treatment, animals were sacrificed and the stomach was separated. This removed stomach was opened along the greater curvature and cleaned using saline to check for ulcers. The ulcers were graded as: 0—Normal texture stomach 0.5—Red coloration 1.0—Spot of ulcers 1.5—Hemorrhagic streaks 2.0—Ulcers up to 3 3.0—Ulcers above 3

[2] = In vitro stability in simulated gastric fluid (HCl buffer pH 2); assay type: physicochemical; details: for % MAS-1696 Left in the Simulated Gastric Fluid of pH 2: 37 °C
Experimental: (§2) The chromatographic purity of the compound MAS-1696, partition coefficient, chemical stability, and metabolic stability were assessed using RP-HPLC. An isocratic elution system of acetonitrile-methanol-water-acetic acid (70:18:12:0.01) was used. An injection volume of 10 µL and flow rate of 1 mL/min with a relative standard deviation of 0.5% reproducibility was maintained.
The HCl buffer (pH 2) at 37 °C was used to evaluate the chemical stability of MAS-1696. To a 400 µL solution of MAS-1696 (10 mg/mL in chloroform), 3.6 mL of HCl buffer (pH 2) was added and kept on a shaker plate at 37 °C. Aliquots (400 µL) collected at different time points were mixed with 1600 µL of acetonitrile. After centrifugation, the supernatant was subjected to HPLC analysis. The remaining percentage of MAS-1696 was determined using the formula:% remaining = (peak area at the respective time (min)/peak area at 0 min) × 100

[3] = Partition/distribution coefficient (log P), shake flask method with HPLC; assay type: physicochemical; details: 1-octanol–0.05 M phosphate buffer pH 7.4, 25 °C, n = 2
Experimental: as §2
The aqueous phase and 1-octanol were stirred overnight. The MAS-1696 in 1-octanol (2 mL) and phosphate buffer (5 mL) was stirred at 25 °C in a water bath shaker for 8 h. Both layers were separated and filtered through Millipore’s 0.22 µm nylon membrane filter. The 1-octanol layer was diluted appropriately before being injected into the HPLC. The log P was determined by using the following equation:log Poct/wat = log ([solute]octanol)/([solute]unionized water)

COX1 = biological target: T3, COX1 (Ovis aries, UniProt P05979); test: Cyclooxygenase (COX1) inhibitory assay, ovine/human COX inhibitor assay kit; assay type: biochemical; details: n = 3, mean ± SD
T3 construct: purchased
T3 sequence (P05979 25-600): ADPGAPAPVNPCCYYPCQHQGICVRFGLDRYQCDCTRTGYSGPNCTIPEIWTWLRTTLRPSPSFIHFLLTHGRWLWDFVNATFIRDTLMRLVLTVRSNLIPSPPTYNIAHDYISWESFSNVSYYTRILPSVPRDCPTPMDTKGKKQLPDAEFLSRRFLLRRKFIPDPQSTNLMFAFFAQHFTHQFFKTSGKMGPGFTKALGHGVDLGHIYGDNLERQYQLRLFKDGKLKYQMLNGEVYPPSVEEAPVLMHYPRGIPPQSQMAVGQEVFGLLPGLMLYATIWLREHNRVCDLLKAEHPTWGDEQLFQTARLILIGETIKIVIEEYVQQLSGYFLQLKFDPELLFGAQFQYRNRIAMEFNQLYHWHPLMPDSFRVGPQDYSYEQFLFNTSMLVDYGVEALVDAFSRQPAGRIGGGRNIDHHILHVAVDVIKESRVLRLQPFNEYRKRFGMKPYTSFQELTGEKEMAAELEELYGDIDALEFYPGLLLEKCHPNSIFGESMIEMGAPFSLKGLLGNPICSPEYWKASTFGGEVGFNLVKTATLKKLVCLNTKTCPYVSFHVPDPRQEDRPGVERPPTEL
Experimental: as §1

[4] = In vitro human plasma stability; assay type: in vitro ADME; details: for % MAS-1696 Left in Human Plasma: 37 °C
Experimental: as §2
To a 50 µL solution of MAS-1696 (10 mg/mL in chloroform), 900 µL of human plasma was added and kept on a shaker plate at 37 °C. Aliquots (100 µL) were collected at different intervals and mixed with 900 µL of acetonitrile for precipitation of proteins. After centrifugation, the supernatant was subjected to HPLC analysis. The remaining percentage of the conjugate was calculated using the formula:% remaining = (peak area at the respective time (min)/peak area at 0 min) × 100.

[5] = Aqueous solubility in buffer pH 7.4 (HPLC); assay type: physicochemical; details: aqueous buffer of pH 7.4, HPLC

Compound: COc1ccc2cc([C@H](C)C(=O)O)ccc2c1 [Naproxen, S-naproxen]
- IC50 (COX2): 20.1 µM
- Anti-inflammatory effect (edema, paw volume) [1]: significant decrease in the edema and paw volume
- IC50 (human recombinant 5-LOX): 36.5 µM
- Ulcer score / gastric damage (stomach (gastric ulcers)): substantial rise in ulcer score compared with the control

Compound: C=CCc1ccc(OC(=O)[C@@H](C)c2ccc3cc(OC)ccc3c2)c(OC)c1 [MAS-1696, (S)-4-Allyl-2-methoxyphenyl 2-(2-methoxynaphthalen-6-yl)propanoate]
- % MAS-1696 Left in the Simulated Gastric Fluid of pH 2 ([2]; 0 h): 100%
- % MAS-1696 Left in the Simulated Gastric Fluid of pH 2 ([2]; 2 h): 96.16%
- % MAS-1696 Left in the Simulated Gastric Fluid of pH 2 ([2]; 5 h): 90.72%
- % MAS-1696 Left in the Simulated Gastric Fluid of pH 2 ([2]; 8 h): 83.30%
- % MAS-1696 Left in the Simulated Gastric Fluid of pH 2 ([2]; 12 h): 77% and 77.03%
- % of MAS-1696 hydrolyzed in simulated gastric fluid ([2]; pH 2, 0 h): 0%
- % of MAS-1696 hydrolyzed in simulated gastric fluid ([2]; pH 2, 2 h): 3.84%
- % of MAS-1696 hydrolyzed in simulated gastric fluid ([2]; pH 2, 5 h): 9.28%
- % of MAS-1696 hydrolyzed in simulated gastric fluid ([2]; pH 2, 8 h): 16.7%
- % of MAS-1696 hydrolyzed in simulated gastric fluid ([2]; pH 2, 12 h): 22.97%
- melting point: 99 to 100 °C
- Selectivity Index (COX2; SI = IC50 COX1/IC50 COX2): 1.1
- IC50 (COX2; n = 3, mean ± SD, read-out: IC50 COX2 (converted)): 7.76 µM
- Rise in selectivity for COX2 over COX1 (COX selectivity index) compared to naproxen (COX2; vs parent compound naproxen): 23%
- logP at 8 h [3]: 4.7 ± 0.26
- IC50 (COX1): 8.5 µM
- Anti-inflammatory effect (edema, paw volume) [1]: anti-inflammatory potency comparable or even superior to S-naproxen
- Anti-inflammatory effect (edema, paw volume) ([1]; listed as MAS1696): better anti-inflammatory effect when compared with S-naproxen
- % MAS-1696 Left in Human Plasma ([4]; 0 min): 100%
- Hydrolysis in human plasma (in words) ([4]; 80% human plasma, 0, 30 and 60 min): completely hydrolyzed within half an hour; also recorded: readily hydrolyzed
- % MAS-1696 Left in Human Plasma ([4]; 30 min): 0%
- % MAS-1696 Left in Human Plasma ([4]; 60 min): 0%
- Solubility (pH 7.4) [5]: BDL
- IC50 (human recombinant 5-LOX; n = 3, mean ± SD, read-out: IC50 5-LOX (converted)): 28.5 µM
- Ulcer score / gastric damage (stomach (gastric ulcers)): considerably less damage; also recorded: significantly less stomach damage
